The values that follow are results of earlier work, collected in patent US20120027718A1, “COMBINATION THERAPY WITH GLATIRAMER ACETATE AND RASAGILINE FOR THE TREATMENT OF MULTIPLE SCLEROSIS” (Teva Pharmaceutical Industries, Ltd., priority 2005, published 2012).

One data set relates to stroke models. The following applies: in vivo.
Data set [1] concerns models of traumatic head injury. The settings on record: in vivo.

On to `C#CCN[C@@H]1CCc2ccccc21` [Rasagiline, R(+)-N-propargyl-1-aminoindan], for which, in the data set with stroke models, the “efficacy in stroke models” value was “effective”. Besides, the “efficacy in models of traumatic head injury” value in data set [1] is “effective”.

Regarding “L-glutamic acid polymer with L-alanine, L-lysine and L-tyrosine, acetate (salt) [Glatiramer acetate]”, in the data set with multiple sclerosis (MS) (daily subcutaneous injections, 20 mg/injection), the “relapse rates, progression of disability, appearance of new lesions by MRI and appearance of black holes” value is “reduce”. Moreover, the “efficacy in treating multiple sclerosis” value in the data set on multiple sclerosis (MS) (human, in vivo) is “effective”.
